Source: PMC12624573, “The antigen presentation landscape of cytokine-stressed human pancreatic islets” (Cell reports, 2025)
Residues, ends and D or L forms follow the SMILES beside them. No end group written: not given here. *: point of attachment. Carboxymethyl = O=C(O)C*

How the values were obtained:
CD4+ T cells from PBMC = experiment: IFN-γ ELISpot, PBMC-derived in vitro expanded CD4+ T cell lines; type: cell-based, human; details: for T1D Donor T cell response / non-T1D Donor T cell response: PBMC T cell lines, responding donors/donors tested; for Recognition by IFN-γ-secreting CD4 T cells (ELISpot): expanded PBMCs from a T1D donor, PTM peptides and native parents
[1] = system: islet-derived T cell lines; experiment: Cytokine bead array (IFN-γ, TNF-α, IL-10), combined islet-derived T cell lines from donors with T1D; details: for islet derived T cell lines response to DR peptide pools or to single peptides: class II (DR) peptide pools or single peptides; for islet derived T cell lines response to DR peptide pools or to single peptides / islet derived T cell lines response to A2-S peptide pools or to single peptides: IFNg, TNFa, IL-10 secretion; for islet derived T cell lines response to A2-S peptide pools or to single peptides: class I (A2) peptide pools or single peptides
CD8+ T cells from PBMC = experiment: IFN-γ ELISpot, PBMC-derived in vitro expanded CD8+ T cell lines; type: cell-based, human; details: PBMC T cell lines, responding donors/donors tested
HLA-DRB1*03:01 = HLA-DRB1*03:01 (Homo sapiens, UniProt P01903+P01911, A100K/A102G/A103R/A169T/F55Y/I96L/K41T/L162R/M171V/P40S/Q125H/Q178H/Q39Y/R42S/S66N/T106N/T262R/W38E/Y61H); experiment: Fluorescence polarization competition peptide binding assay, HLA-DRB1*03:01
[2] = PTM and unmodified native Pool Peptides (pool PTM 1), long peptides
[3] = DRB1*03:01+ donor 6579, cytokine bead array (Figures 6I–6K)
[4] = SEC (Secretory) A2 Peptides Set
[5] = donor 6551, cytokine bead array, 48 h (Figures 6A–6C)
[6] = SEC (Secretory) DR3 Peptides Set
[7] = PTM and unmodified native Pool Peptides (pool PTM 1), 9-mer peptides

For AVPEEEGPTVVLXPHPSLG [148–1], the “T1D Donor T cell response” value (CD4+ T cells from PBMC; [2]) was 0/4, the “non-T1D Donor T cell response” value (CD4+ T cells from PBMC; [2]) was 0/4 and the “IFN-γ secretion, islet-derived T cell lines” value [1, 3] was “recognized”. For the same compound, the “IL-10 secretion, islet-derived T cell lines” value (“IL-10 secretion” for short) [1, 3] was “recognized”, the “TNF-α secretion, islet-derived T cell lines” value [1, 3] was “recognized” and the “islet derived T cell lines response to DR peptide pools or to single peptides” value ([1]; donor 6550 lines) was “donor 6550 lines negative”. For the same compound, the “islet derived T cell lines response to DR peptide pools or to single peptides” value ([1]; donor 6579 lines, listed as 148-1) was “donor 6579 lines positive with TNFa and IL-10 secretion”.
For RSAAVLALL [compound 175], the “T1D Donor T cell response” value (CD8+ T cells from PBMC; [4]) was 1/5, the “non-T1D Donor T cell response” value (CD8+ T cells from PBMC; [4]) was 0/4 and the “IFN-γ secretion, islet-derived T cell lines” value [1, 5] was “strong”. The “IL-10 secretion” value [1, 5] was “strong”, the “TNF-α secretion, islet-derived T cell lines” value [1, 5] was “strong” and the “islet derived T cell lines response to A2-S peptide pools or to single peptides” value ([1]; donor 6551 lines) was “donor 6551 lines positive for IFNg, TNFa, IL10 secretion”.
QSIEGGAHEGLQHLGP [peptide 191] was tested, and the “T1D Donor T cell response” value (CD4+ T cells from PBMC; [6]) was 0/4, the “non-T1D Donor T cell response” value (CD4+ T cells from PBMC; [6]) was 0/4 and the “IL-10 secretion” value ([1]; DRB1*03:01+ donor 6550, cytokine bead array (Figure 6H)) was “recognized”. For the same compound, the “islet derived T cell lines response to DR peptide pools or to single peptides” value ([1]; donor 6550 lines) was “donor 6550 lines positive with IL-10 secretion” and the “islet derived T cell lines response to DR peptide pools or to single peptides” value ([1]; donor 6579 lines) was “donor 6579 lines negative”.
With EADFAIEAL [150-1] the “T1D Donor T cell response” value (CD8+ T cells from PBMC; [7]) was 0/6, the “non-T1D Donor T cell response” value (CD8+ T cells from PBMC; [7]) was 0/4 and the “islet derived T cell lines response to A2-S peptide pools or to single peptides” value ([1]; donor 6551 lines) was “donor 6551 lines positive with IFNg, TNFa, IL10 secretion”.
With AAAFVNQHL [compound 171] the “T1D Donor T cell response” value (CD8+ T cells from PBMC; [4]) was 0/6, the “non-T1D Donor T cell response” value (CD8+ T cells from PBMC; [4]) was 0/4 and the “islet derived T cell lines response to A2-S peptide pools or to single peptides” value ([1]; donor 6551 lines) was “donors 6551 and 6578 lines negative”. The “islet derived T cell lines response to A2-S peptide pools or to single peptides” value ([1]; donor 6578 lines) was “donors 6551 and 6578 lines negative”.
CC(C)C[C@H](NC(=O)[C@H](C)NC(=O)[C@H](CCC(=O)O)NC(=O)[C@@H](NC(=O)[C@H](CC(C)C)NC(=O)[C@H](Cc1c[nH]cn1)NC(=O)[C@H](CO)NC(=O)CN)C(C)C)C(=O)N[C@@H](Cc1ccc(O)cc1)C(=O)N[C@@H](CC(C)C)C(=O)N[C@H](C(=O)N[C@@H](CSCC(=O)O)C(=O)NCC(=O)N[C@@H](CCC(=O)O)C(=O)N[C@@H](CCCNC(=N)N)C(=O)NCC(=O)N[C@@H](Cc1ccccc1)C(=O)O)C(C)C [peptide 146–1, GSHLVEALYLVXGERGF] (H-GSHLVEALYLVC(Carboxymethyl)GERGF-OH; N-terminus and C-terminus assumed) was tested, and the “T1D Donor T cell response” value (CD4+ T cells from PBMC; [2]) was 1/4, the “non-T1D Donor T cell response” value (CD4+ T cells from PBMC; [2]) was 0/4 and the “Recognition by IFN-γ-secreting CD4 T cells (ELISpot)” value (CD4+ T cells from PBMC) was “recognized”. The IC50 (HLA-DRB1*03:01) was 270 to 300 nM.
For KSIYFVAGL [compound 173], the “T1D Donor T cell response” value (CD8+ T cells from PBMC; [4]) was 0/6, the “non-T1D Donor T cell response” value (CD8+ T cells from PBMC; [4]) was 0/4 and the “islet derived T cell lines response to A2-S peptide pools or to single peptides” value ([1]; donor 6551 lines) was “donors 6551 and 6578 lines negative”. For the same compound, the “islet derived T cell lines response to A2-S peptide pools or to single peptides” value ([1]; donor 6578 lines) was “donors 6551 and 6578 lines negative”.
NYPSLELDKMAHG [peptide 182] was tested, and the “T1D Donor T cell response” value (CD4+ T cells from PBMC; [6]) was 0/4, the “non-T1D Donor T cell response” value (CD4+ T cells from PBMC; [6]) was 0/4 and the “IL-10 secretion” value [1, 3] was “recognized”. For the same compound, the “islet derived T cell lines response to DR peptide pools or to single peptides” value ([1]; donor 6579 lines) was “donor 6579 lines positive with IL-10 secretion”.
With GSHLVEALYLVCGERGF [peptide 146] the “T1D Donor T cell response” value (CD4+ T cells from PBMC; [2]) was 1/4, the “non-T1D Donor T cell response” value (CD4+ T cells from PBMC; [2]) was 0/4 and the “Recognition by IFN-γ-secreting CD4 T cells (ELISpot)” value (CD4+ T cells from PBMC) was “recognized”. The IC50 (HLA-DRB1*03:01) was 270 to 300 nM.
